Reference: patent US20200123104A1, “PHARMACEUTICAL AGENT THAT BINDS THE P2X7 RECEPTOR” (Indiana University Research and Technology Corporation, priority 2017, published 2020)
Values joined by “and” are separate entries in the source; they are usually repeats but may differ in a detail not shown here. Equal values may be shown once.

Key:
[1] = biological target: T1, human P2X7R (HEK293-hP2X7R) (Homo sapiens, UniProt Q99572); experiment: Saturation and kinetic radioligand binding of 11C-GSK1482160 to HEK293-hP2X7R
T1 construct: expressed in transfected cells; host or cells: HEK293
T1 sequence (Q99572 1-595): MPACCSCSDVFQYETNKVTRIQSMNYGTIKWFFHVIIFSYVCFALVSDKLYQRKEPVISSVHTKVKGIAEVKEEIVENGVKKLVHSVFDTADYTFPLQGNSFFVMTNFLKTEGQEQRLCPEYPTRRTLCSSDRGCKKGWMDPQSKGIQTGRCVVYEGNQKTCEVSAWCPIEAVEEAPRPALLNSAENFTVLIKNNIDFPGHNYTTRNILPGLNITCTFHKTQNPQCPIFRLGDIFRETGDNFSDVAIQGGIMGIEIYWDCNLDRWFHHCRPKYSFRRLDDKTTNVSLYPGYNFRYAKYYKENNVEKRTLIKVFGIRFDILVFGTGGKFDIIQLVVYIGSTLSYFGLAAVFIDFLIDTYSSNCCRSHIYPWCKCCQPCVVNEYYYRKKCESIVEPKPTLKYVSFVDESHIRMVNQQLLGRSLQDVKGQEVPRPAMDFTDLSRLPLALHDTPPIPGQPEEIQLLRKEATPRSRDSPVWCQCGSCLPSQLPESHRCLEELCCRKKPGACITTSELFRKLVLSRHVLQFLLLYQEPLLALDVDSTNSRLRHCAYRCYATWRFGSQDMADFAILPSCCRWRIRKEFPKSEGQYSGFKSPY
Description: Receptor density (Bmax) is determined by a saturation approach as employed with each P2X7-receptor ligand employing [^11C]GSK1482160 as a convenient reference ligand that is expected to bind in the same region of the receptor. […] Samples and control wells are run in triplicate at each concentration. After equilibrium has been reached, separation of bound from free [^11C]GSK1482160 radioligand is performed using a 96-well filtration apparatus. To estimate receptor association (kon) and dissociation (koff) rates, an association/dissociation kinetic experiment is performed. Association is measured as a function of time using cell membrane homogenate from HEK-P2X7 cells incubated with 2-4 concentrations of the ^18F-radioligand. Dissociation is measured in the presence of excess authentic standard once at steady state according to published methods. Radioactivity for both studies is measured on the filters (or filter plates) using a Perkin-Elmer TopCount Data is analyzed and plotted using GraphPad Prism to obtain Bmax and Kd values for the compound.

[2] = in vivo; cited from earlier work
P2X7 receptor [3] = biological target: T2, P2X7 receptor (Homo sapiens, UniProt Q99572); details: read-out: P2X7 receptor affinity (KB) (converted); cited from earlier work
T2 sequence (Q99572 1-595): T1 sequence (Q99572 1-595)

P2X7 receptor [4] = biological target: T2, P2X7 receptor; experiment: Competitive binding with [11C]GSK1482160 as reference tracer, membrane homogenate of HEK cells transfected with the human P2X7 gene; design: host or cells: HEK (human embryonic kidney) cells, membrane homogenate; details: HEK-hP2X7 membrane homogenate, [11C]GSK1482160 reference tracer
Description: Samples and control wells are run in triplicate at each concentration. After equilibrium has been reached, separation of bound from free [^11C]GSK1482160 radioligand is performed using a 96-well filtration apparatus. To estimate receptor association (kon) and dissociation (koff) rates, an association/dissociation kinetic experiment is performed. Association is measured as a function of time using cell membrane homogenate from HEK-P2X7 cells incubated with 2-4 concentrations of the ^18F-radioligand. Dissociation is measured in the presence of excess authentic standard once at steady state according to published methods. Radioactivity for both studies is measured on the filters (or filter plates) using a Perkin-Elmer TopCount Data is analyzed and plotted using GraphPad Prism to obtain Bmax and Kd values for the compound.

Kd ([1]; read-out: K): 1.15 ± 0.12 nM | koff ([1]; read-out: dissociation constant koff (converted)): 0.00425 s⁻¹ | Ki (P2X7 receptor [4]): 5.14 ± 0.85 nM
Structure (SMILES): [11CH3]N1C(=O)CC[C@H]1C(=O)NCc1cccc(C(F)(F)F)c1Cl [[^11C]GSK1482160]
crossing of the blood-brain barrier [2]: readily crosses the blood-brain barrier | Kb (P2X7 receptor [3]): 95.9 nM and 95 nM
